From US12295936B2, “Immunomodulating urea azalides” (Zoetis Services LLC, priority 2020, dated 2025)

system: BRD pathogens, M. haemolytica and P. multocida; test: MIC screening panel of BRD pathogens (antibacterial / non-antibacterial); settings: read-out: antibacterial / non-antibacterial (MIC for the BRD pathogens)

Row | SMILES | MIC
1 | CCCN1C[C@H](C)C[C@@](C)(O)[C@H](O[C@@H]2O[C@H](C)C[C@H](N(C)C(=O)N(C)c3ccc(C(F)(F)F)cc3)[C@H]2O)[C@@H](C)[C@H](O[C@H]2C[C@@](C)(OC)[C@@H](O)[C@H](C)O2)[C@@H](C)C(=O)O[C@H](CC)[C@@](C)(O)[C@H](O)[C@H]1C [Example B-14, 1-((2S,3R,4S,6R)-2-(((2R,3S,4R,5R,8R,10R,11R,12S,13S,14R)-2-ethyl-3,4,10-trihydroxy-13-(((2R,4R,5S,6S)-5-hydroxy-4-methoxy-4,6-dimethyltetrahydro-2H-pyran-2-yl)oxy)-3,5,8,10,12,14-hexamethyl-15-oxo-6-propyl-1-oxa-6-azacyclopentadecan-11-yl)oxy)-3-hydroxy-6-methyltetrahydro-2H-pyran-4-yl)-1,3-dimethyl-3-(4-(trifluoromethyl)phenyl)urea] | > 64 µg/mL
2 | CCCN1C[C@H](C)C[C@@](C)(O)[C@H](O[C@@H]2O[C@H](C)C[C@H](N(C)C(=O)N(C)c3ccccc3)[C@H]2O)[C@@H](C)[C@H](O[C@H]2C[C@@](C)(OC)[C@@H](O)[C@H](C)O2)[C@@H](C)C(=O)O[C@H](CC)[C@@](C)(O)[C@H](O)[C@H]1C [Example B-15, 1-((2S,3R,4S,6R)-2-(((2R,3S,4R,5R,8R,10R,11R,12S,13S,14R)-2-ethyl-3,4,10-trihydroxy-13-(((2R,4R,5S,6S)-5-hydroxy-4-methoxy-4,6-dimethyltetrahydro-2H-pyran-2-yl)oxy)-3,5,8,10,12,14-hexamethyl-15-oxo-6-propyl-1-oxa-6-azacyclopentadecan-11-yl)oxy)-3-hydroxy-6-methyltetrahydro-2H-pyran-4-yl)-1,3-dimethyl-3-phenylurea] | > 64 µg/mL
3 | CCOC[C@]1(O)[C@H](C)O[C@@H](O[C@H]2[C@H](C)[C@@H](O[C@@H]3O[C@H](C)C[C@H](N(C)C(=O)Nc4ccccc4)[C@H]3O)[C@](C)(O)C[C@@H](C)CN[C@H](C)[C@@H](O)[C@](C)(O)[C@@H](CC)OC(=O)[C@@H]2C)C[C@@]1(C)OC [Example C-1, 1-((2S,3R,4S,6R)-2-(((2R,3S,4R,5R,8R,10R,11R,12S,13S,14R)-13-(((2R,4R,5S,6S)-5-(ethoxymethyl)-5-hydroxy-4-methoxy-4,6-dimethyltetrahydro-2H-pyran-2-yl)oxy)-2-ethyl-3,4,10-trihydroxy-3,5,8,10,12,14-hexamethyl-15-oxo-1-oxa-6-azacyclopentadecan-11-yl)oxy)-3-hydroxy-6-methyltetrahydro-2H-pyran-4-yl)-1-methyl-3-phenylurea] | > 64 µg/mL
4 | CCOC[C@]1(O)[C@H](C)O[C@@H](O[C@H]2[C@H](C)[C@@H](O[C@@H]3O[C@H](C)C[C@H](N(C)C(=O)N(C)c4ccc(C(F)(F)F)cc4)[C@H]3O)[C@](C)(O)C[C@@H](C)CN[C@H](C)[C@@H](O)[C@](C)(O)[C@@H](CC)OC(=O)[C@@H]2C)C[C@@]1(C)OC [Example C-3, 1-((2S,3R,4S,6R)-2-(((2R,3S,4R,5R,8R,10R,11R,12S,13S,14R)-13-(((2R,4R,5S,6S)-5-(ethoxymethyl)-5-hydroxy-4-methoxy-4,6-dimethyltetrahydro-2H-pyran-2-yl)oxy)-2-ethyl-3,4,10-trihydroxy-3,5,8,10,12,14-hexamethyl-15-oxo-1-oxa-6-azacyclopentadecan-11-yl)oxy)-3-hydroxy-6-methyltetrahydro-2H-pyran-4-yl)-1,3-dimethyl-3-(4-(trifluoromethyl)phenyl)urea] | > 64 µg/mL
5 | CC[C@H]1OC(=O)[C@H](C)[C@@H](O[C@H]2C[C@@](C)(OC)[C@](O)(CCl)[C@H](C)O2)[C@H](C)[C@@H](O[C@@H]2O[C@H](C)C[C@H](N(C)C(=O)Nc3ccccc3)[C@H]2O)[C@](C)(O)C[C@@H](C)CN[C@H](C)[C@@H](O)[C@]1(C)O [Example E-1, 1-((2S,3R,4S,6R)-2-(((2R,3S,4R,5R,8R,10R,11R,12S,13S,14R)-13-(((2R,4R,5S,6S)-5-(chloromethyl)-5-hydroxy-4-methoxy-4,6-dimethyltetrahydro-2H-pyran-2-yl)oxy)-2-ethyl-3,4,10-trihydroxy-3,5,8,10,12,14-hexamethyl-15-oxo-1-oxa-6-azacyclopentadecan-11-yl)oxy)-3-hydroxy-6-methyltetrahydro-2H-pyran-4-yl)-1-methyl-3-phenylurea] | > 64 µg/mL
6 | CC[C@H]1OC(=O)[C@H](C)[C@@H](O[C@H]2C[C@@](C)(OC)[C@](O)(CN=[N+]=[N-])[C@H](C)O2)[C@H](C)[C@@H](O[C@@H]2O[C@H](C)C[C@H](N(C)C(=O)Nc3ccccc3)[C@H]2O)[C@](C)(O)C[C@@H](C)CN[C@H](C)[C@@H](O)[C@]1(C)O [Example F-1, 1-((2S,3R,4S,6R)-2-(((2R,3S,4R,5R,8R,10R,11R,12S,13S,14R)-13-(((2R,4R,5S,6S)-5-(azidomethyl)-5-hydroxy-4-methoxy-4,6-dimethyltetrahydro-2H-pyran-2-yl)oxy)-2-ethyl-3,4,10-trihydroxy-3,5,8,10,12,14-hexamethyl-15-oxo-1-oxa-6-azacyclopentadecan-11-yl)oxy)-3-hydroxy-6-methyltetrahydro-2H-pyran-4-yl)-1-methyl-3-phenylurea] | > 64 µg/mL
7 | CC[C@H]1OC(=O)[C@H](C)[C@@H](O[C@H]2C[C@@](C)(OC)[C@](O)(CC#N)[C@H](C)O2)[C@H](C)[C@@H](O[C@@H]2O[C@H](C)C[C@H](N(C)C(=O)Nc3ccccc3)[C@H]2O)[C@](C)(O)C[C@@H](C)CN[C@H](C)[C@@H](O)[C@]1(C)O [Example G-1, 1-((2S,3R,4S,6R)-2-(((2R,3S,4R,5R,8R,10R,11R,12S,13S,14R)-13-(((2R,4R,5S,6S)-5-(cyanomethyl)-5-hydroxy-4-methoxy-4,6-dimethyltetrahydro-2H-pyran-2-yl)oxy)-2-ethyl-3,4,10-trihydroxy-3,5,8,10,12,14-hexamethyl-15-oxo-1-oxa-6-azacyclopentadecan-11-yl)oxy)-3-hydroxy-6-methyltetrahydro-2H-pyran-4-yl)-1-methyl-3-phenylurea] | > 64 µg/mL
8 | CC[C@H]1OC(=O)[C@H](C)[C@@H](O[C@H]2C[C@@](C)(OC)[C@](O)(CC#N)[C@H](C)O2)[C@H](C)[C@@H](O[C@@H]2O[C@H](C)C[C@H](N(C)C(=O)N(C)c3ccc(C(F)(F)F)cc3)[C@H]2O)[C@](C)(O)C[C@@H](C)CN[C@H](C)[C@@H](O)[C@]1(C)O [Example G-3, 1-((2S,3R,4S,6R)-2-(((2R,3S,4R,5R,8R,10R,11R,12S,13S,14R)-13-(((2R,4R,5S,6S)-5-(cyanomethyl)-5-hydroxy-4-methoxy-4,6-dimethyltetrahydro-2H-pyran-2-yl)oxy)-2-ethyl-3,4,10-trihydroxy-3,5,8,10,12,14-hexamethyl-15-oxo-1-oxa-6-azacyclopentadecan-11-yl)oxy)-3-hydroxy-6-methyltetrahydro-2H-pyran-4-yl)-1,3-dimethyl-3-(4-(trifluoromethyl)phenyl)urea] | > 64 µg/mL
9 | CC[C@H]1OC(=O)[C@H](C)[C@@H](O[C@H]2C[C@@](C)(OC)[C@](O)(CN(CCN3CCOCC3)C(=O)NC3CC3)[C@H](C)O2)[C@H](C)[C@@H](O[C@@H]2O[C@H](C)C[C@H](N(C)C(=O)NC3CC3)[C@H]2O)[C@](C)(O)C[C@@H](C)CN[C@H](C)[C@@H](O)[C@]1(C)O [Example H-1, 3-cyclopropyl-1-((2S,3R,4S,6R)-2-(((2R,3S,4R,5R,8R,10R,11R,12S,13S,14R)-13-(((2R,4R,5S,6S)-5-((3-cyclopropyl-1-(2-morpholinoethyl)ureido)methyl)-5-hydroxy-4-methoxy-4,6-dimethyltetrahydro-2H-pyran-2-yl)oxy)-2-ethyl-3,4,10-trihydroxy-3,5,8,10,12,14-hexamethyl-15-oxo-1-oxa-6-azacyclopentadecan-11-yl)oxy)-3-hydroxy-6-methyltetrahydro-2H-pyran-4-yl)-1-methylurea] | > 64 µg/mL
10 | CC[C@H]1OC(=O)[C@H](C)[C@@H](O[C@H]2C[C@@](C)(OC)[C@](O)(CN(C)C)[C@H](C)O2)[C@H](C)[C@@H](O[C@@H]2O[C@H](C)C[C@H](N(C)C(=O)Nc3ccccc3)[C@H]2O)[C@](C)(O)C[C@@H](C)CN[C@H](C)[C@@H](O)[C@]1(C)O [Example H-2, 1-((2S,3R,4S,6R)-2-(((2R,3S,4R,5R,8R,10R,11R,12S,13S,14R)-13-(((2R,4R,5S,6S)-5-((dimethylamino)methyl)-5-hydroxy-4-methoxy-4,6-dimethyltetrahydro-2H-pyran-2-yl)oxy)-2-ethyl-3,4,10-trihydroxy-3,5,8,10,12,14-hexamethyl-15-oxo-1-oxa-6-azacyclopentadecan-11-yl)oxy)-3-hydroxy-6-methyltetrahydro-2H-pyran-4-yl)-1-methyl-3-phenylurea] | > 64 µg/mL
11 | CC[C@H]1OC(=O)[C@H](C)[C@@H](O[C@H]2C[C@@](C)(OC)[C@](O)(CN(CC)CC)[C@H](C)O2)[C@H](C)[C@@H](O[C@@H]2O[C@H](C)C[C@H](N(C)C(=O)Nc3ccccc3)[C@H]2O)[C@](C)(O)C[C@@H](C)CN[C@H](C)[C@@H](O)[C@]1(C)O [Example H-4, 1-((2S,3R,4S,6R)-2-(((2R,3S,4R,5R,8R,10R,11R,12S,13S,14R)-13-(((2R,4R,5S,6S)-5-((diethylamino)methyl)-5-hydroxy-4-methoxy-4,6-dimethyltetrahydro-2H-pyran-2-yl)oxy)-2-ethyl-3,4,10-trihydroxy-3,5,8,10,12,14-hexamethyl-15-oxo-1-oxa-6-azacyclopentadecan-11-yl)oxy)-3-hydroxy-6-methyltetrahydro-2H-pyran-4-yl)-1-methyl-3-phenylurea] | > 64 µg/mL
12 | CCCNC[C@]1(O)[C@H](C)O[C@@H](O[C@H]2[C@H](C)[C@@H](O[C@@H]3O[C@H](C)C[C@H](N(C)C(=O)NCCN(C)C)[C@H]3O)[C@](C)(O)C[C@@H](C)CN[C@H](C)[C@@H](O)[C@](C)(O)[C@@H](CC)OC(=O)[C@@H]2C)C[C@@]1(C)OC [Example H-6, 3-(2-(dimethylamino)ethyl)-1-((2S,3R,4S,6R)-2-(((2R,3S,4R,5R,8R,10R,11R,12S,13S,14R)-2-ethyl-3,4,10-trihydroxy-13-(((2R,4R,5S,6S)-5-hydroxy-4-methoxy-4,6-dimethyl-5-((propylamino)methyl)tetrahydro-2H-pyran-2-yl)oxy)-3,5,8,10,12,14-hexamethyl-15-oxo-1-oxa-6-azacyclopentadecan-11-yl)oxy)-3-hydroxy-6-methyltetrahydro-2H-pyran-4-yl)-1-methylurea] | > 64 µg/mL
